Values after ≈ are worked out from the molar mass of the structure shown. Values joined by “and” are separate entries in the source; they are usually repeats but may differ in a detail not shown here. Identical values can stand only once. Like-named read-outs stand apart in the source and are kept apart here.
What was measured:
[1] = tested on: Flavobacterium columnare ALM-00-173; assay: rapid 96-well microplate antibacterial bioassay against F. columnare; format: cell-based; conditions: F. columnare ALM-00-173; for MIC RDCF (relative-to-drug-control florfenicol): MIC divided by MIC of florfenicol; for IC50 / MIC: Flavobacterium columnare; for IC50: ALM00173, 24 h; for MIC: ALM00173, read-out: MIC (minimum inhibitory concentration); for MIC / MIC (minimum inhibitory concentration): 24 h
Source text: An isolate of F. columnare [isolate ALM-00-173 (genomovar II)] was obtained from Dr. Covadonga Arias (School of Fisheries, Aquaculture and Aquatic Sciences, Auburn University, Auburn, Ala.). In order to assure purity, cultures of F. columnare ALM-00-173 were maintained separately on modified Shieh (MS) agar plates (pH 7.2-7.4) (Decostere, A., et al., Laboratory Animals, 36: 396-402 (2003)). Prior to conducting the bioassay, colonies of F. columnare ALM-00-173 were used to prepare the assay culture material by culturing in 75 mL of MS broth for 24 h at 29±1° C. at 150 rpm on a rotary shaker (model C24KC; New Brunswick Scientific, Edison, N.J.). After overnight incubation, a 0.5 McFarland standard of F. columnare ALM-00-173 culture material was prepared by transferring cells from the broth culture to fresh MS broth (Schrader, K. K., and M. D. Harries, Aquaculture Research, 37: 928-937 (2006)).
(§1) The pure test compounds (−)-diplopyrone and (−)-diplopyrone acetate were dissolved in technical grade 100% methanol while (−)-diplopyrone nitrile was dissolved in technical grade 100% acetone. The three test compounds were evaluated for antibacterial activity against F. columnare ALM-00-173 and E. ictaluri S02-1039 using a rapid 96-well microplate bioassay and following previous procedures (Schrader and Harries 2006). Florfenicol was included as a positive drug control. Control wells (no test material added) were also included in each assay. Final test concentrations of compounds and florfenicol were 0.01, 0.1, 1.0, 10.0, 100.0, and 1000.0 μM. Three replications were used for each dilution of each test compound and drug control, and final results were converted to units of mg/L to allow comparison with previous studies.
(§2) The 24-h 50% inhibition concentration (IC50) and minimum inhibitory concentration (MIC) were determined using sterile 96-well (flat bottom) polystyrene microplates (Corning Costar Corp., Acton, Mass.) for (−)-diplopyrone and (−)-diplopyrone acetate. In order to prevent solvent interaction with polystyrene, sterile 96-well (flat bottom) quartz microplates (Hellma Cells, Inc., Forest Hills, N.Y.) were used for (−)-diplopyrone nitrile. Initially, dissolved test compounds or florfenicol were micropippeted separately into individual microplate wells (10 μL/well), and the solvent was allowed to completely evaporate before 0.5 MacFarland bacterial culture was added to the microplate wells (200 μL/well). Microplates were incubated at 29±1° C. (VWR model 2005 incubator; Sheldon Manufacturing, Inc., Cornelius, Oreg.). A microplate photometer (SpectraCount, Packard Instrument Company, Meriden, Conn.) was used to measure the absorbance (630 nm) of the microplate wells at time 0 and 24-h. Two replicates of each microplate bioassay were made. Cell viability of F. columnare ALM-00-173 and E. ictaluri S02-1039 was determined at the completion of the growth bioassay for each test compound using the yellow dye 3(4,5-dimethylthiazol-2-yl)-2,5-diphenyl tetrazolium bromide (MTT) and previously outlined procedures (Schrader and Harries 2006). In addition, the minimum bactericidal concentration (MBC) was determined for very active compounds (Schrader and Harries 2006).
(§3) The means and standard errors of absorbance measurements were calculated, graphed, and compared to controls to determine the MIC, 24-h IC50, and MTT 24-h IC50 for each test compound. The 24-h IC50 and MIC results for each test compound were divided by the respective 24-h IC50 and MIC results obtained for the positive control florfenicol to determine the relative-to-drug-control florfenicol (RDCF) values.

[2] = tested on: Edwardsiella ictaluri S02-1039; assay: rapid 96-well microplate antibacterial bioassay against E. ictaluri; format: cell-based; conditions: E. ictaluri S02-1039; for MIC RDCF (relative-to-drug-control florfenicol): MIC divided by MIC of florfenicol; for IC50: S021039, 24 h; for MIC / MIC (minimum inhibitory concentration): 24 h; for MIC: read-out: MIC (minimum inhibitory concentration)
Source text: An isolate of E. ictaluri (isolate S02-1039) was obtained from a person (formerly with the College of Veterinary Medicine, Mississippi State University, Stoneville, Miss.). In order to assure purity, cultures of E. ictaluri S02-1039 were maintained on 3.8% Mueller-Hinton (MH) agar plates (pH 7.3) (Becton, Dickinson and Company, Sparks, Md.). Prior to conducting the bioassay, colonies of E. ictaluri S02-1039 were used to prepare assay culture material by aseptically transferring bacterial cells from colonies to 45 mL of 3.8% MH broth to form a bacterial cell density of 0.5 McFarland standard.
as §1, §2, §3

[3] = tested on: Lemna paucicostata (L.) Hegelm. (duckweed); assay: duckweed phytotoxicity bioassay (growth by frond area); format: in vivo; conditions: for visual symptoms: 7 days of exposure, FIG. 7
Protocol: Pyranopyran (2), pyranopyran acetate (3), and pyranopyran nitrile (4) were also evaluated for phytotoxic activity using the aquatic plant Lemna paucicostata (L.) Hegelm. (duckweed). Dose-response curves from the aquatic plant Lemna paucicostata (L.) Hegelm. (duckweed) were obtained from experiments conducted. Duckweed was grown and treated as described by Michel et al. (Michel, A., et al., Environ. Toxicol. Chem., 23: 1074-1079 (2004)) with slight modifications. Duckweed stocks were cultivated from single L. paucicostata colonies (an aggregate of one mother and two daughter fronds to assure genetic uniformity) in Hoagland's No. 2 basal salt mixture with added iron (1000× Fe-EDTA solution, pH 5.5) in sterile trays. The plants were grown in a growth chamber under the following controlled conditions: continuous light at 26° C. and 120 μmol·s^−1·m^−2 photosynthetically active radiation. Hoagland solution was changed every two days. Bioassays were conducted in sterile […] (Falcon, Corning Life Science). Each well contained 5 mL with 1% EtOH with or without test compounds. Test compounds were dissolved in EtOH. A graphic template of the six-well plates was used for LemnaTec (LemnaTec, Würselen, Germany) image analysis software. Treatment plates, with two three-frond plants of the approximately same size per well, were incubated during 7 days of treatment. Each treatment was replicated three times. IC50 values (concentration of test compound that inhibits growth 50%) were determined with R statistics software. Effects on growth are evaluated by measuring area of the plant fronds with image analysis.

[4] = tested on: Lemna paucicostata (L.) Hegelm. (duckweed); conditions: commercial herbicides; Michel et al. 2004; read-out: IC50 in the same duckweed bioassay; cited from earlier work
[5] = absorbance 630 nm, SE in parentheses, read-out: 24-h IC50 (50% inhibition concentration)
[6] = tetrazolium bromide dye MTT, read-out: MTT 24-h IC50 (cell viability)
[7] = Edwardsiella ictaluri, absorbance 630 nm, SE in parentheses, read-out: 24-h IC50 (50% inhibition concentration)
[8] = Edwardsiella ictaluri, tetrazolium bromide dye MTT, read-out: MTT 24-h IC50 (cell viability)
[9] = Edwardsiella ictaluri, S021039, SE in parentheses
[10] = absorbance 630 nm, SE in parentheses

Row | Compound | MIC RDCF (relative-to-drug-control florfenicol) [1] | IC50 [1, 5] [µg/mL] | MIC ([1]; SE in parentheses) [µg/mL] | MIC RDCF (relative-to-drug-control florfenicol) [2] | IC50 [2, 7] [µg/mL] | MIC [2, 9] [µg/mL] | MIC (minimum inhibitory concentration) ([1]; SE in parentheses) | 24-h IC50 (50% inhibition concentration) [1, 10] | MIC (minimum inhibitory concentration) ([2]; SE in parentheses) | 24-h IC50 (50% inhibition concentration) [2, 10] | further results
1 | O=C1C=C[C@H]2O[C@H](CO)C=C[C@H]2O1 [Desmethylpyranopyran (28), (4aR,6S,8aR)-6-(Hydroxymethyl)-6,8a-dihydropyrano[3,2-b]pyran-2(4aH)-one] | 505.6 (0) | 76.4 (≈ 419 µM) | 182 (≈ 999 µM) | 50.6 (0) | 48.2 (≈ 265 µM) | 18.2 (≈ 99.9 µM) |  |  |  |  | IC50 [1, 6]: 79.2 µg/mL (≈ 435 µM); IC50 [2, 8]: 14.7 µg/mL (≈ 80.7 µM)
2 | CC(=O)OC[C@@H]1C=C[C@H]2OC(=O)C=C[C@H]2O1 [Desmethylpyranopyran acetate (27), (2S,4aR,8aR)-6-Oxo-2,4a,6,8a-tetrahydropyrano[3,2-b]pyran-2-yl]methyl acetate] | 622.2 (0) |  |  | 62.2 (0) |  |  | 224.0 (0) mg/L | >224.0 mg/L | 22.4 (0) mg/L | 39.2 (1.1) mg/L | MTT 24-h IC50 (cell viability) ([1]; tetrazolium bromide dye MTT): >224.0 mg/L; MTT 24-h IC50 (cell viability) ([2]; tetrazolium bromide dye MTT): 35.8 (4.5) mg/L
3 | CS(=O)(=O)c1ccc([C@@H](O)[C@@H](CF)NC(=O)C(Cl)Cl)cc1 [Florfenicol, reference compound] |  | 0.69 (≈ 1.93 µM) | 0.36 (≈ 1 µM) |  | 0.18 (≈ 0.502 µM) | 0.36 (≈ 1 µM) |  | 0.54 mg/L |  | 0.14 mg/L | 
4 | C[C@@H](O)[C@@H]1C=C[C@H]2OC(=O)C=C[C@H]2O1 [Pyranopyran (2), (4aR,6S,8aR)-6-((R)-1-Hydroxyethyl)-6,8a-dihydropyrano[3,2-b]pyran-2-(4aH)-one] | 544.4 (0) |  |  | 54.4 (0) |  |  | 196.0 (0) mg/L | 76.4 (2.0) mg/L | 19.6±0 mg/L and 19.6 (0) mg/L | 46.1 ± 1.0 mg/L | MTT 24-h IC50 (cell viability) ([1]; tetrazolium bromide dye MTT): 78.4 (0) mg/L; MTT 24-h IC50 (cell viability) ([2]; tetrazolium bromide dye MTT): 22.1 (9.3) mg/L
5 | CC(=O)O[C@H](C)[C@@H]1C=C[C@H]2OC(=O)C=C[C@H]2O1 [Pyranopyran acetate (3), (4aR,6S,8aR)-6-((R)-1-Acetoxyethyl)-6,8a-dihydropyrano[3,2-b]pyran-2-(4aH)-one] | 661.1 (0) |  |  | 661.1 (0) |  |  | 238 mg/L and 238.0 (0) mg/L | >238.0 mg/L | 238.0 (0) mg/L | 165.4 (1.2) mg/L | MTT 24-h IC50 (cell viability) ([1]; tetrazolium bromide dye MTT): >238.0 mg/L; MTT 24-h IC50 (cell viability) ([2]; tetrazolium bromide dye MTT): 90.4 (4.8) mg/L
6 | NC(=O)[C@@H]1C=C[C@H]2OC(=O)C=C[C@H]2O1 [Pyranopyran amide (29), (2S,4aR,8aR)-6-Oxo-2,4a,6,8a-tetrahydropyrano[3,2-b]pyran-2-carboxamide] | 297.9 (243.8) | 54.6 (≈ 280 µM) | 107 (≈ 550 µM) | 54.2 (0) | 20.5 (≈ 105 µM) | 19.5 (≈ 99.9 µM) |  |  |  |  | IC50 [1, 6]: 75.1 µg/mL (≈ 385 µM); IC50 [2, 8]: 16.6 µg/mL (≈ 85.1 µM); melting point: 160 to 164 °C
7 | N#C[C@@H]1C=C[C@H]2OC(=O)C=C[C@H]2O1 [Pyranopyran nitrile (4), (4aR,6S,8aR)-6-Cyano-6,8a-dihydropyrano-[3,2-b]pyran-2(4aH)-one] | 49.2 (0) | 7.5 ± 0.5 (≈ 42.3 µM) | 17.7 (≈ 99.9 µM) | 0.5 (0) | 7.7 ± 1.2 (≈ 43.5 µM) | 0.002 (≈ 0.0113 µM) | 17.7 (0) mg/L |  | 0.002 (0) mg/L |  | IC50 [1, 6]: 16.8 ± 0.9 µg/mL (≈ 94.8 µM); MIC RDCF (relative-to-drug-control florfenicol) ([2]; listed as pyranopyran nitrile (4)): 0.5±0; IC50 [2, 8]: 64.6 µg/mL (≈ 365 µM); MBC ([2]; Edwardsiella ictaluri, S021039, bound is the highest test concentration, read-out: minimum bactericidal concentration (MBC)): > 177 µg/mL; melting point: 162 to 164 °C; IC50 ([3]; Lemna aequinoctialis, 144 h, Lemna paucicostata growth, frond area, FIG. 6, 6 days of exposure, read-out: IC50 (concentration that inhibits growth 50%)): < 1000 nM; visual symptoms ([3]; at 33 μM and higher): some of the plants had no chlorophyll and were necrotic; visual symptoms ([3]; at 100 μM): many of the plants were devoid of chlorophyll and necrotic
8 | C#C[C@@H]1C=C[C@H]2OC(=O)C=C[C@H]2O1 [compound 36, (4aR,6S,8aR)-6-Ethynyl-6,8a-dihydropyrano[3,2-b]pyran-2(4aH)-one] |  |  |  |  |  |  |  |  |  |  | melting point: 153 to 154 °C
9 | CCc1cnc(C2=NC(C)(C(C)C)C(=O)N2)c(C(=O)O)c1 (stereo not shown) [imazethapyr] |  |  |  |  |  |  |  |  |  |  | IC50 [4]: 930 nM
10 | CC(C)c1ccc(NC(=O)N(C)C)cc1 [isoproturon] |  |  |  |  |  |  |  |  |  |  | IC50 [4]: 350 nM
11 | CCC(CC)Nc1c([N+](=O)[O-])cc(C)c(C)c1[N+](=O)[O-] [pendimethalin] |  |  |  |  |  |  |  |  |  |  | IC50 [4]: 380 nM
